This note sets out measurements from patent US20170107207A1, “AMINOPYRAZOLONE DERIVATIVE” (DAIICHI SANKYO COMPANY, LIMITED, priority 2014, published 2017).

pIC50: −log10 of the molar value.

For test [1], the system named is human lymphoma cell line RAMOS cells. The test is described as follows: Cell growth inhibition test using RAMOS cell, MTT assay. The note with it: 50% growth inhibition concentration. It is filed as cell-based. In outline:
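Cells in RPMI1640 with 10% FBS were exposed to compound (DMSO ≤1%) for 3 days at 37° C, 5% CO2. Viability was read by MTT (4 h, formazan in DMSO, OD 540/660 nm) against a day-0 plate; GI50 was interpolated from T/C % growth rates.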

A further test addresses T1, TIP48/TIP49 complex (Homo sapiens, UniProt Q9Y230+Q9Y265).
T1 construct: made in house; host or cells: E. coli
In words: ATPase assay of TIP48/TIP49 complex (ADP-Glo). Type of test: biochemical. The note with it: concentration at which the ATPase activity was inhibited by 50%. The essentials:
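Recombinant human TIP48 and TIP49 expressed in E. coli (24.5 μg/mL final) were incubated 1.5 h at room temperature with compound (0.0007–200 μM, 2% DMSO) in Tris-HCl pH 7.5 buffer containing MgCl2 and ATP. ADP formed was detected by ADP-Glo luminescence; inhibition came from dose-response curves.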
In general terms: ADP-Glo first removes unused ATP, then detects ADP through luciferase.

T1 sequence (Q9Y230 whole entry): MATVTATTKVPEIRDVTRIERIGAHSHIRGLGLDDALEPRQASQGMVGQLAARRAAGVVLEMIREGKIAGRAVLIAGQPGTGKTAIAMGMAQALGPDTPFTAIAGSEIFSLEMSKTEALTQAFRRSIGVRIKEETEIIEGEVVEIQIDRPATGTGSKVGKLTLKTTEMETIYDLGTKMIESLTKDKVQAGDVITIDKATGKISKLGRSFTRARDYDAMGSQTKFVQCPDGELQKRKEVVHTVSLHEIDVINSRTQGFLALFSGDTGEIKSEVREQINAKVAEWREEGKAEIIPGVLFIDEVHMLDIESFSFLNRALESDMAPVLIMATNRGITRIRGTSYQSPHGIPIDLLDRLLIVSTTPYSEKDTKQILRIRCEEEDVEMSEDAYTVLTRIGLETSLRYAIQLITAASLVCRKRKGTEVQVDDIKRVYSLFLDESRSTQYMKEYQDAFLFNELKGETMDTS
T1 sequence (Q9Y265 whole entry): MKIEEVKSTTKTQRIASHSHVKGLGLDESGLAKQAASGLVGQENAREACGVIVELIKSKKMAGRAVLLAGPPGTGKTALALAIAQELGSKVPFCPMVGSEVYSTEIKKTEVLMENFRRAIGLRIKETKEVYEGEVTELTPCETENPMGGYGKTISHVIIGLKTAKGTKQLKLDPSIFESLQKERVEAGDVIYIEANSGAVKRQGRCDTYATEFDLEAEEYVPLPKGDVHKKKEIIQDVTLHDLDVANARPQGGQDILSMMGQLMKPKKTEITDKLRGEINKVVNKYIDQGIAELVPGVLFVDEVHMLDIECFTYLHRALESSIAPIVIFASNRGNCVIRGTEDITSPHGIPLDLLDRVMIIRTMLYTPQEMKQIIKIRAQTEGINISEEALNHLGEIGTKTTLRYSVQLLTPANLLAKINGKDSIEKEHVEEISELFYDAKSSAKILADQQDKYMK

In turn, `COCc1c(NC(=O)CC(C)(C)CNC(=O)c2cc(Cl)cc3c2OC(C)(C)C3)c(=O)n(-c2ccccc2)n1C` [Example 121, 5-Chloro-N-(4-{[5-(methoxymethyl)-1-methyl-3-oxo-2-phenyl-2,3-dihydro-1H-pyrazol-4-yl]amino}-2,2-dimethyl-4-oxobutyl)-2,2-dimethyl-3H-benzofuran-7-carboxamide] showed a GI50 in test [1] of 140 nM. The same compound had a pIC50 against TIP48/TIP49 complex of 7.21.

Consider `COc1ccc(Cl)cc1NC(=O)CC(C)(C)CC(=O)Nc1c(C(C)C)n(C)n(-c2ccccc2)c1=O` [Example 128, N-(5-Chloro-2-methoxyphenyl)-N′-(5-isopropyl-1-methyl-3-oxo-2-phenyl-2,3-dihydro-1H-pyrazol-4-yl)-3,3-dimethylpentanediamide], for which the GI50 in test [1] was 590 nM. The negative-log IC50 (pIC50) on TIP48/TIP49 complex is 6.72.

In test [1], `COc1ccc(Cl)cc1C(=O)NCC(C)(C)CC(=O)Nc1c(COC2CN(C)C2)n(C)n(-c2ccccc2)c1=O` [Example 134] returned a concentration for 50% growth inhibition (GI50) of 800 nM. At TIP48/TIP49 complex, this compound had a negative-log IC50 (pIC50) of 6.66.

In test [1], `CCOc1ccc(Cl)cc1C(=O)NCC(C)(C)CC(=O)Nc1c(COc2cccnc2)n(C)n(-c2ccccc2)c1=O` [Example 135, 5-Chloro-N-(2,2-dimethyl-4-{[1-methyl-3-oxo-2-phenyl-5-(3-pyridyloxymethyl)pyrazol-4-yl]amino}-4-oxobutyl)-2-ethoxybenzamide] showed a 50% growth inhibitory concentration (GI50) of 120 nM. Moreover, the pIC50 on TIP48/TIP49 complex is 7.00.

In test [1], `COc1ccc(Cl)cc1NC(=O)CC(C)(C)CC(=O)Nc1cn(C)n(-c2ccccc2)c1=O` [Example 136, N-(5-Chloro-2-methoxyphenyl)-3,3-dimethyl-N′-(1-methyl-3-oxo-2-phenyl-2,3-dihydro-1H-pyrazol-4-yl)pentanediamide] gave a concentration for 50% growth inhibition (GI50) of 1700 nM. Moreover, the negative-log IC50 (pIC50) at TIP48/TIP49 complex is 6.51.

In turn, `CCOc1ccc(Cl)cc1C(=O)NCC(C)(C)CC(=O)Nc1c(C)n(CC)n(-c2ccccc2)c1=O` [Example 137, 5-Chloro-2-ethoxy-N-{4-[(1-ethyl-5-methyl-3-oxo-2-phenyl-2,3-dihydro-1H-pyrazol-4-yl)amino]-2,2-dimethyl-4-oxobutyl}benzamide] returned a GI50 in test [1] of 48 nM. This compound also had a pIC50 at TIP48/TIP49 complex of 7.42.

The compound `CCCn1c(C)c(NC(=O)CC(C)(C)CC(=O)Nc2cc(Cl)c(F)cc2OC)c(=O)n1-c1ccccc1` [Example 138, N-(5-Chloro-4-fluoro-2-methoxyphenyl)-3,3-dimethyl-N′-(3-methyl-5-oxo-1-phenyl-2-propylpyrazol-4-yl)pentanediamide] returned a 50% growth inhibitory concentration (GI50) in test [1] of 330 nM. The compound further showed a negative logarithm of the IC50 (pIC50) against TIP48/TIP49 complex of 6.74.

Take `Cc1c(NC(=O)CC(C)(C)CNC(=O)c2cc(Cl)cc3c2OC(C)(C)C3)c(=O)n(-c2ccccc2)n1CCO` [Example 139, 5-Chloro-N-(4-{[1-(2-hydroxyethyl)-5-methyl-3-oxo-2-phenyl-2,3-dihydro-1H-pyrazol-4-yl]amino}-2,2-dimethyl-4-oxobutyl)-2,2-dimethyl-3H-benzofuran-7-carboxamide]: the GI50 in test [1] worked out at 65 nM. This compound also gave a pIC50 against TIP48/TIP49 complex of 7.60.

`CCOc1ncc(Cl)cc1C(=O)NCC(C)(C)CC(=O)Nc1c(C)n(CCN2CCC2)n(-c2ccccc2)c1=O` [Example 140, N-[4-({1-[2-(Azetidin-1-yl)ethyl]-5-methyl-3-oxo-2-phenyl-2,3-dihydro-1H-pyrazol-4-yl}amino)-2,2-dimethyl-4-oxobutyl]-5-chloro-2-ethoxypyridine-3-carboxamide] returned a GI50 in test [1] of 240 nM. In addition, the pIC50 at TIP48/TIP49 complex is 6.60.

`CCOc1ncc(Cl)cc1C(=O)NCC(C)(C)CC(=O)Nc1c(C)n(CCN(C)C)n(-c2ccccc2)c1=O` [Example 141, 5-Chloro-N-[4-({1-[2-(dimethylamino)ethyl]-5-methyl-3-oxo-2-phenyl-2,3-dihydro-1H-pyrazol-4-yl}amino)-2,2-dimethyl-4-oxobutyl]-2-ethoxypyridine-3-carboxamide] returned a GI50 in test [1] of 230 nM. The compound further showed a pIC50 on TIP48/TIP49 complex of 6.80.

For the compound `CCOc1ncc(Cl)cc1C(=O)NCC(C)(C)CC(=O)Nc1c(C)n(CCN2CCOCC2)n(-c2ccccc2)c1=O` [Example 142, 5-Chloro-N-(2,2-dimethyl-4-{[5-methyl-1-(2-morpholinoethyl)-3-oxo-2-phenyl-2,3-dihydro-1H-pyrazol-4-yl]amino}-4-oxobutyl)-2-ethoxypyridine-3-carboxamide], the 50% growth inhibitory concentration (GI50) in test [1] was 180 nM. For the same compound, the pIC50 at TIP48/TIP49 complex was 7.21.

In test [1], `C=Cn1c(C)c(NC(=O)CC(C)(C)CC(=O)Nc2cc(Cl)c(F)cc2OC)c(=O)n1-c1ccccc1` [Example 143, N-(5-Chloro-4-fluoro-2-methoxyphenyl)-3,3-dimethyl-N′-(3-methyl-5-oxo-1-phenyl-2-vinylpyrazol-4-yl)pentanediamide] displayed a GI50 of 1200 nM. Also, the negative logarithm of the IC50 (pIC50) against TIP48/TIP49 complex is 6.59.

In the case of `COc1cc(F)c(Cl)cc1NC(=O)CC(C)(C)CC(=O)Nc1c(C)[nH]n(-c2ccccc2)c1=O` [Example 144, N-(5-Chloro-4-fluoro-2-methoxyphenyl)-3,3-dimethyl-N′-(5-methyl-3-oxo-2-phenyl-1H-pyrazol-4-yl)pentanediamide], the GI50 in test [1] was found to be 11000 nM. On TIP48/TIP49 complex, this compound showed a pIC50 of 5.82.

Consider `COc1ccc(Cl)cc1C(=O)NCC(C)(C)CC(=O)Nc1c(C)n(C)n(-c2cccc(C)c2)c1=O` [Example 145, 5-Chloro-N-(4-{[1,5-dimethyl-2-(m-toluyl)-3-oxopyrazol-4-yl]amino}-2,2-dimethyl-4-oxobutyl)-2-methoxybenzamide], for which, in test [1], the 50% growth inhibitory concentration (GI50) came to 770 nM. The compound further gave a pIC50 against TIP48/TIP49 complex of 7.38.

As for `Cc1c(NC(=O)CC(C)(C)CC(=O)Nc2cc(Cl)ccc2OC(C)C)c(=O)n(-c2cccc(C(F)(F)F)c2)n1C` [Example 147, N-(5-Chloro-2-isopropoxy-phenyl)-N′-[1,5-dimethyl-3-oxo-2-[3-(trifluoromethyl)phenyl]pyrazol-4-yl]-3,3-dimethylpentanediamide], it took 40 nM to inhibit growth in test [1] by half (GI50). Also, the pIC50 at TIP48/TIP49 complex was 7.09.

For `CCOc1ccc(Cl)cc1C(=O)NCC(C)(C)CC(=O)Nc1c(C)n(C)n(-c2ccccn2)c1=O` [Example 149, 5-Chloro-N-(4-{[1,5-dimethyl-3-oxo-2-(2-pyridyl)pyrazol-4-yl]amino}-2,2-dimethyl-4-oxobutyl)-2-ethoxybenzamide], in test [1], growth was halved (GI50) at 190 nM. The compound further had a pIC50 against TIP48/TIP49 complex of 7.00.

Regarding `CCOc1ncc(Cl)cc1C(=O)NCC(C)(C)CC(=O)Nc1c(C)n(C)n(-c2ccccn2)c1=O` [Example 150, 5-Chloro-N-(4-{[1,5-dimethyl-3-oxo-2-(2-pyridyl)-2,3-dihydro-1H-pyrazol-4-yl]amino}-2,2-dimethyl-4-oxobutyl)-2-ethoxypyridine-3-carboxamide], in test [1], the GI50 was 350 nM. This compound showed a negative-log IC50 (pIC50) on TIP48/TIP49 complex of 6.96.

`Cc1cc2cc(Cl)cc(C(=O)NCC(C)(C)CC(=O)Nc3c(C)n(C)n(-c4ccccn4)c3=O)c2o1` [Example 151, 5-Chloro-N-(4-{[1,5-dimethyl-3-oxo-2-(2-pyridyl)-2,3-dihydro-1H-pyrazol-4-yl]amino}-2,2-dimethyl-4-oxobutyl)-2-methylbenzofuran-7-carboxamide] had a 50% growth inhibitory concentration (GI50) in test [1] of 130 nM. Moreover, the negative-log IC50 (pIC50) at TIP48/TIP49 complex is 7.40.

Turning to `CCOc1ccc(Cl)cc1C(=O)NCC(C)(C)CC(=O)Nc1c(C)n(C)n(-c2cccc(C)n2)c1=O` [Example 152, 5-Chloro-N-(4-{[1,5-dimethyl-2-(6-methyl-2-pyridyl)-3-oxopyrazol-4-yl]amino}-2,2-dimethyl-4-oxobutyl)-2-ethoxybenzamide], it took 81 nM to inhibit growth in test [1] by half (GI50). The compound further had a pIC50 against TIP48/TIP49 complex of 7.24.

By GI50 is commonly meant the concentration that inhibits growth by half. Lower therefore signals more potent growth inhibition. Usually pIC50 stands for the negative decadic logarithm of the IC50, by convention in mol/L.
